Measurements taken from patent US11053608B2, “Combinatorial derivatives of RNA oligonucleotides” (priority 2017, dated 2021).

Experiments:
skin wounds = assay: Wound healing activity; format: in vivo, male Vistar white rats
Procedure: The study of the wound healing properties of the compositions was carried out on male Vistar white rats. In 38 animals that were anesthetized with diethyl ether for 2-4 min., A 2 by 2 cm skin area was cut out on the dorsal side of the body, behind the right shoulder blade. The skin was taken with tweezers, it was pulled back, the skin fragment was cut 2 cm in size, wound depth 2 mm, the average area of the wound was 4±1.0 cm^2.
The resulting wounds of a polygonal shape were intensively bleeding. Then the wounds of animals first and second groups (10 in each), D1 and D2 compositions were applied.
The wounds of rats of the 3rd group were treated with Dexpanthenol (DP), the 4th group of 8 animals was the control group, the wounds of these animals were not treated. The compositions in contact with blood formed a gel form, it was covering entire surface of the wound and capture a small fragment of surrounding skin around the wound.
The glue BF-6 was applied on top of the gel, dried and the animals were released into cells.
The planimetric studies of the wounds were carried out from 1st day of experiment on the 3rd, 6th, 9th, 11th, and 13th days, which made it possible to judge the features of reparative processes.
The measurement of the area of the wounds was carried out as follows: on the celluloid film which was covering the wound entirely, contours were applied, after which the area of the wound surface was determined using graph paper.

HeLa-2 tumor cells = assay: Minimum active dose and cytopathic effect in HeLa-2 cell culture; format: cell-based; conditions: minimum amount causing degeneration of 90-95% of the cells; medium 199; monitored 5 days
Procedure: Determination of the anticancer activity of MATR in the cell culture was performed in a HeLa-2 cell culture. The different amount of MATR from 2 to 12 μg/ml of medium was added to medium 199. (see table 1). For the control a culture was without MATR. Cell cultures were monitored for 5 days with daily viewing. The minimum active dose (MAD) of MATR was considered to be its minimum amount, which caused degeneration of 90-95% of the cells (Table 2)

[1] = Toxic dose LD50 and lethal dose LD100; format: in vivo
Procedure: The compositions (MATR and Taxotere) were administered intraperitoneally three times with an interval of two hours in 0.5 ml. For MATR injection aqueous solution was used. The total doses of the compositions were 34.0, 68.0, 84.0, 102.0 and 136 mg/kg. The number of dead animals in each group was confirmed every 24-48 hours. The calculation of the toxic dose, LD50, was carried out according to the protocol. The lethal dose, […], was determined experimentally.

Schwez leukemia = assay: Antitumor activity on Shvets leukemia; format: in vivo, Outbred white rats; conditions: injected dose 9.1*3 = 27.3 mg/kg intraperitoneal

Row | SMILES | Wound Area (S) during the observation (skin wounds; 1-3 days) [cm2] | Wound Area (S) during the observation (skin wounds; 3-6 days) [cm2] | Wound Area (S) during the observation (skin wounds; 6-9 days) [cm2] | Wound Area (S) during the observation (skin wounds; 9-11 days) [cm2] | Wound Area (S) during the observation (skin wounds; 11-13 days) [cm2] | MAD (minimum active dose) (HeLa-2 tumor cells) [µg/mL] | LD50 ([1]; in vivo, intraperitoneal) [mg/kg] | toxicity of the control compound (dose in brackets) ([1]; intraperitoneally three times with an interval of two hours) [mg/kg] | Tumor volume (Schwez leukemia) [cm3]
1 | CC(C)(CO)[C@@H](O)C(=O)NCCCO [DP, Dexpanthenol] | 4.1 ± 1.0 | 3.2 ± 0.3 | 2.4 ± 0.3 | 1.0 ± 0.3 | 0.3 ± 0.1 |  |  |  | 
2 | CC(=O)O[C@@]12CO[C@@H]1C[C@H](O)[C@@]1(C)C(=O)[C@H](O)C3=C(C)[C@@H](OC(=O)[C@H](O)[C@@H](NC(=O)OC(C)(C)C)c4ccccc4)C[C@@](O)([C@@H](OC(=O)c4ccccc4)[C@H]21)C3(C)C [Taxotere] |  |  |  |  |  | 10 | 120 | 120 | 0.73
